Tests used:
[1] = wide range of doses; up to six months of continuous treatment; cited from earlier work
[2] = test system: sST-2; experiment: Serum sST-2 measured by EIA kit (PRESAGE sST-2 assay) in heart failure subjects treated 48 hours with serelaxin or placebo; format: in vivo, human
Protocol: Samples were collected from subjects enrolled in a multi-center, randomized, double-blind, placebo-controlled clinical trial, which was conducted to determine the safety and efficacy of serelaxin (recombinant human serelaxin) in subjects with heart failure, as described in Teerlink et al. (supra).
Serum was collected from 218 subjects (supra) for whom a baseline level of sST-2 as well as a post-serelaxin treatment level of sST-2 was determined. sST-2 was found at a lower limit of quantitation of 3.1 ng/ml and an upper limit of quantitation of 200 ng/ml. sST-2 was measured via the EIA kit (see Example 7 for more detail) and exact clinical measurements are summarized in Table 1 (see attached Table 1).
The difference between the placebo group and each of the serelaxin dose groups was statistically significant at 48 hours.
At baseline, geometric means across treatment groups ranged from 47 ng/ml to 60 ng/ml, i.e., 55 percent of the treated subjects had sST-2 concentrations that exceeded the normal range of 33.5 ng/ml in females and 49.3 ng/ml in males. […] This established that serelaxin transiently upregulates sST-2.
FIG. 3 depicts a between-treatment analysis of sST-2 by visit, comparing a change from baseline in sST-2 geometric means between the serelaxin groups compared to the placebo group at 3 time points. […] The differences subsided so that by Day 5, changes from baseline in 3 of the 4 serelaxin groups, as well as the pooled serelaxin group, were no different than change from baseline in the placebo group. By Day 14, the changes from baseline in all of the serelaxin groups were not different from change in the placebo group. As above, this establishes that serelaxin transiently up-regulates sST-2.
sST-2 levels were measured with the EIA Test Kit & PRESAGE sST-2 Assay (from Critical Diagnostics, NY) according to the manufacturer's instructions. Alternatively, other assays could be used such as the QUANTIKINE ST2/IL-1 R4 Immunoassay (from R&D Systems, Inc., MN).
The EIA test kit is a quantitative sandwich monoclonal ELISA in a 96 well plate format for measurement of sST-2 in serum or plasma. Diluted serum from 218 subjects was loaded into the appropriate wells in the anti-ST-2 antibody coated plate and incubated for the prescribed time. Following a series of steps, where reagents were washed from the plate, and additional reagents were added and subsequently washed out, the analyte sST-2 was detected by addition of a colorimetric reagent. The resulting signal was measured spectroscopically at 450 nm. The assay was conducted according to the parameters described in the assay description of the EIA test kit with all prescribed reagents and materials.

serelaxin
safety in nonclinical toxicology studies [1]: safe | change from baseline in sST-2 concentrations at 48 hours ([2]; 48 hours of treatment, all serelaxin dose groups, placebo decreased 30%, p<0.05 for all serelaxin groups vs. placebo): increase from baseline | change from baseline in sST-2 geometric means vs. placebo group at 48 hours ([2]; 48 hours, all serelaxin groups and pooled serelaxin group, between-treatment analysis (FIG. 3)): significantly different | change from baseline in sST-2 geometric means vs. placebo group at Day 5 ([2]; Day 5, 3 of the 4 serelaxin groups and pooled serelaxin group): no different | change from baseline in sST-2 geometric means vs. placebo group at Day 14 ([2]; Day 14, all serelaxin groups): not different
